# Experiment: Water solubility of catalyst
row,Water solubility of catalyst,Structure (SMILES)
1,Soluble,"Cn1cc[n+](C)c1C(=O)[O-] [modified imidazole A, 1,3-dimethylimidazolium-2-carboxylate]"
2,Soluble,CCCC[n+]1ccn(C)c1C(=O)[O-] [modified imidazole B]
3,Insoluble,Cn1cc[n+](C)c1/C([O-])=N\c1ccccc1 [modified imidazole C]
4,Insoluble,CCCCCCCC[n+]1ccn(C)c1/C([O-])=N\c1ccccc1 [modified imidazole E]
5,Insoluble,CCCCCCCCn1cc[n+](CCCCCCCC)c1/C([O-])=N\c1ccccc1 [modified imidazole F]
6,Soluble,Cn1cc[n+](C)c1.[Cl-] [reference compound]

row,Structure (SMILES),Water solubility of catalyst
1,"CCCCCCC[CH2][Sn](=[O])[CH2]CCCCCCC [Dioctyltin oxide, reference compound]",Insoluble
